In ChEMBL document CHEMBL4680233, “A series of novel aryl-methanone derivatives as inhibitors of FMS-like tyrosine kinase 3 (FLT3) in FLT3-ITD-positive acute myeloid leukemia” (Eur J Med Chem, 2020):
The source made the active and inactive calls. The calls are words filed in the database; no cut-off is given here.

Key:
[1] = target: Proto-oncogene tyrosine-protein kinase receptor Ret (Homo sapiens, UniProt P07949); test: Inhibition of human RET incubated for 30 mins by Kinobead based assay
[2] = target: Receptor-type tyrosine-protein kinase FLT3 (Homo sapiens, UniProt P36888); test: Inhibition of human FLT3 incubated for 30 mins by Kinobead based assay
[3] = target: Mitogen-activated protein kinase kinase kinase kinase 4 (Homo sapiens, UniProt O95819); test: Inhibition of human MAP4K4 incubated for 30 mins by Kinobead based assay
[4] = target: Cyclin-dependent kinase 16 (Homo sapiens, UniProt Q00536); test: Inhibition of human CDK16 incubated for 30 mins by Kinobead based assay
[5] = target: Mitogen-activated protein kinase kinase kinase 20 (Homo sapiens, UniProt Q9NYL2); test: Inhibition of human ZAK incubated for 30 mins by Kinobead based assay
[6] = target: Receptor-type tyrosine-protein kinase FLT3 (Homo sapiens) (UniProt P36888); settings: MV4-11, dose 20-40 nM, time 3.0 hrs
[7] = target: Discoidin domain-containing receptor 2 (Homo sapiens, UniProt Q16832); test: Inhibition of human DDR2 incubated for 30 mins by Kinobead based assay
Ephrin type-A receptor 7 = Ephrin type-A receptor 7 (Homo sapiens, UniProt Q15375); test: Inhibition of human EPHA7 incubated for 30 mins by Kinobead based assay
[8] = target: Receptor-type tyrosine-protein kinase FLT3 (Homo sapiens, UniProt P36888, ITD)
[9] = target: Receptor-type tyrosine-protein kinase FLT3 (Homo sapiens, UniProt P36888, F691L/ITD)
Description: Binding affinity to human partial length FLT3 ITD/F691L double mutant expressed in mammalian expression system by Kinomescan method

[10] = target: Receptor-type tyrosine-protein kinase FLT3 (Homo sapiens, UniProt P36888, D835Y)
MV4-11 [11] = test: cells; settings: Homo sapiens, MV4-11, 72 h
Description: Cytotoxicity against human MV4-11 cells assessed as reduction in cell viability after 72 hrs by trypan blue dye exclusion method

MV4-11 [12] = test: cells; settings: Homo sapiens, MV4-11, 96 h
Description: Cytotoxicity against human MV4-11 cells assessed as reduction in cell viability after 4 days by CellTiter-Blue assay

L-363 = test: cells; settings: Homo sapiens, L-363, 96 h
Description: Cytotoxicity against human L-363 cells assessed as reduction in cell viability after 4 days by CellTiter-Blue assay

physchem = settings: water
Description: Solubility of compound in water at 10 mg after 3 hrs by UV-spectra analysis

SKM-1 = test: cells; settings: Homo sapiens, SKM-1, 96 h
Description: Cytotoxicity against human SKM-1 cells assessed as reduction in cell viability after 4 days by CellTiter-Blue assay

cells [13] = settings: Homo sapiens, MOLP-2, 96 h
Description: Cytotoxicity against human MOLP-2 cells assessed as reduction in cell viability after 4 days by CellTiter-Blue assay

RPMI-8226 = test: cells; settings: Homo sapiens, RPMI-8226, 96 h
Description: Cytotoxicity against human RPMI-8226 cells assessed as reduction in cell viability after 4 days by CellTiter-Blue assay

MOLM-13 = test: cells; settings: Homo sapiens, MOLM-13, 96 h
Description: Cytotoxicity against human MOLM-13 cells assessed as reduction in cell viability after 4 days by CellTiter-Blue assay

OPM-2 = test: cells; settings: Homo sapiens, OPM-2, 96 h
Description: Cytotoxicity against human OPM-2 cells assessed as reduction in cell viability after 4 days by CellTiter-Blue assay

KG-1 = test: cells; settings: Homo sapiens, KG-1, 96 h
Description: Cytotoxicity against human KG-1 cells assessed as reduction in cell viability after 4 days by CellTiter-Blue assay

U-266 = test: cells; settings: Homo sapiens, U-266, 96 h
Description: Cytotoxicity against human U-266 cells assessed as reduction in cell viability after 4 days by CellTiter-Blue assay

KG-1a = test: cells; settings: Homo sapiens, 96 h
Description: Cytotoxicity against human KG-1a cells assessed as reduction in cell viability after 4 days by CellTiter-Blue assay

OCI-AML-5 = test: cells; settings: Homo sapiens, OCI-AML-5, 96 h
Description: Cytotoxicity against human OCI-AML5 cells assessed as reduction in cell viability after 4 days by CellTiter-Blue assay

KMOE-2 = test: cells; settings: Homo sapiens, KMOE-2, 96 h
Description: Cytotoxicity against human KMOE-2 cells assessed as reduction in cell viability after 4 days by CellTiter-Blue assay

TF-1 = test: cells; settings: Homo sapiens, TF-1, 96 h
Description: Cytotoxicity against human TF-1 cells assessed as reduction in cell viability after 4 days by CellTiter-Blue assay

HL-60 = test: cells; settings: Homo sapiens, HL-60, 96 h
Description: Cytotoxicity against human HL-60 cells assessed as reduction in cell viability after 4 days by CellTiter-Blue assay

ML-2 = test: cells; settings: Homo sapiens, ML-2, 96 h
Description: Cytotoxicity against human ML-2 cells assessed as reduction in cell viability after 4 days by CellTiter-Blue assay

cells [14] = settings: Homo sapiens, OCI-M1, 96 h
Description: Cytotoxicity against human OCI-M1 cells assessed as reduction in cell viability after 4 days by CellTiter-Blue assay

cells [15] = settings: Homo sapiens, PL-21, 96 h
Description: Cytotoxicity against human PL21 cells assessed as reduction in cell viability after 4 days by CellTiter-Blue assay

NB-4 = test: cells; settings: Homo sapiens, NB-4, 96 h
Description: Cytotoxicity against human NB-4 cells assessed as reduction in cell viability after 4 days by CellTiter-Blue assay

cells [16] = settings: Homo sapiens, Mono-Mac-1, 96 h
Description: Cytotoxicity against human MONO-MAC-1 cells assessed as reduction in cell viability after 4 days by CellTiter-Blue assay

IM-9 = test: cells; settings: Homo sapiens, IM-9, 96 h
Description: Cytotoxicity against human IM-9 cells assessed as reduction in cell viability after 4 days by CellTiter-Blue assay

MONO-MAC-6 = test: cells; settings: Homo sapiens, MONO-MAC-6, 96 h
Description: Cytotoxicity against human MONO-MAC-6 cells assessed as reduction in cell viability after 4 days by CellTiter-Blue assay

[17] = Toxicity in NMRI nu/nu mouse assessed as lethality at 75 mg/kg/day, po for 3 days; type: organism-based; settings: in vivo, 72 h, time 3 day
[18] = Toxicity in NMRI nu/nu mouse assessed as weight gain at 75 mg/kg/day, po for 3 days relative to control; type: organism-based; settings: in vivo, 72 h, time 3 day
cells [19] = settings: Homo sapiens, ME-1, 96 h
Description: Cytotoxicity against human ME-1 cells assessed as reduction in cell viability after 4 days by CellTiter-Blue assay

OCI-AML2 = test: cells; settings: Homo sapiens, OCI-AML2, 96 h
Description: Cytotoxicity against human OCI-AML2 cells assessed as reduction in cell viability after 4 days by CellTiter-Blue assay

EOL1 = test: cells; settings: Homo sapiens, EOL1, 96 h
Description: Cytotoxicity against human EOL1 cells assessed as reduction in cell viability after 4 days by CellTiter-Blue assay

THP-1 = test: cells; settings: Homo sapiens, THP-1, 96 h
Description: Cytotoxicity against human THP-1 cells assessed as reduction in cell viability after 4 days by CellTiter-Blue assay

NOMO-1 = test: cells; settings: Homo sapiens, NOMO-1, 96 h
Description: Cytotoxicity against human NOMO-1 cells assessed as reduction in cell viability after 4 days by CellTiter-Blue assay

Chain of Proto-oncogene tyrosine-protein kinase receptor Ret (P07949 whole entry): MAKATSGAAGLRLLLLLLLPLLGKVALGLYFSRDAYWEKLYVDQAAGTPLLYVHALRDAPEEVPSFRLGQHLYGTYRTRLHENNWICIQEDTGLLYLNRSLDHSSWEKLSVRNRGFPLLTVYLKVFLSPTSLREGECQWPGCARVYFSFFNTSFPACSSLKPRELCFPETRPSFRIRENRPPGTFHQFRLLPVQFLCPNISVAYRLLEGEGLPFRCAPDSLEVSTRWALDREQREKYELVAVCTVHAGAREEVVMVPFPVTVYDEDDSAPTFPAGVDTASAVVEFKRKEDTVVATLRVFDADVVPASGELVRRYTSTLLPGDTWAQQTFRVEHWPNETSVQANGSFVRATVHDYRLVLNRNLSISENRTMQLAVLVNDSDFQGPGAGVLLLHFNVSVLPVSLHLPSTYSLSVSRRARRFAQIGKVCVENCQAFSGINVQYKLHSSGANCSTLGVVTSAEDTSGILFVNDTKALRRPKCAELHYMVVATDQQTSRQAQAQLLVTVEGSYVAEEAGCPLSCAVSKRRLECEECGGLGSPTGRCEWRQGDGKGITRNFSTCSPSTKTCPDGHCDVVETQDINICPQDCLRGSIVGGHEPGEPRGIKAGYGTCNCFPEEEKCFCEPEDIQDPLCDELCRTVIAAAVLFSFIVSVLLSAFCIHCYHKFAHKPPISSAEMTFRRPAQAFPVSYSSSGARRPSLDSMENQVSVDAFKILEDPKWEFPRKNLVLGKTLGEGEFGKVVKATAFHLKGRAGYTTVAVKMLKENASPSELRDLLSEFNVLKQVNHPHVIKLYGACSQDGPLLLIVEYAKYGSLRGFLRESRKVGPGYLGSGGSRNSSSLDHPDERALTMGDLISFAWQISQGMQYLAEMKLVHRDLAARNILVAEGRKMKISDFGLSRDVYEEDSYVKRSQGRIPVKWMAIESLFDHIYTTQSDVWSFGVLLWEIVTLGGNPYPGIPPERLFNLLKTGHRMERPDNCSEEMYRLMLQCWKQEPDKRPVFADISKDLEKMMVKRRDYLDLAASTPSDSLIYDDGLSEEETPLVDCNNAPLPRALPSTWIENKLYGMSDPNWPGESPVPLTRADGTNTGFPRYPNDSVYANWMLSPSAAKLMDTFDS
Chain of Cyclin-dependent kinase 16 (Q00536 whole entry): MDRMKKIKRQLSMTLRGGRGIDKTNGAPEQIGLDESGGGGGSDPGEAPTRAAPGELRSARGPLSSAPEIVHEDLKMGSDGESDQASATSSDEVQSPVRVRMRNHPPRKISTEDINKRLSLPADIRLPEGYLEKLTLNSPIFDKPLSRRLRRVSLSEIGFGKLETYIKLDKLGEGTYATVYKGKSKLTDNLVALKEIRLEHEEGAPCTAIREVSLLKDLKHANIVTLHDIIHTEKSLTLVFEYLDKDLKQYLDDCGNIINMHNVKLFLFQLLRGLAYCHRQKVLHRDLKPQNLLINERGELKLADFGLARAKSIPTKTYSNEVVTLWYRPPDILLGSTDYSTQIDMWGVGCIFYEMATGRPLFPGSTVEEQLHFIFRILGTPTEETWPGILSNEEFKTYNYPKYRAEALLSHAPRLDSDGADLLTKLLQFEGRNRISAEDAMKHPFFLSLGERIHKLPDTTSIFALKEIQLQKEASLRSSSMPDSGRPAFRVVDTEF
Chain of Discoidin domain-containing receptor 2 (Q16832 whole entry, the tested form may be a part): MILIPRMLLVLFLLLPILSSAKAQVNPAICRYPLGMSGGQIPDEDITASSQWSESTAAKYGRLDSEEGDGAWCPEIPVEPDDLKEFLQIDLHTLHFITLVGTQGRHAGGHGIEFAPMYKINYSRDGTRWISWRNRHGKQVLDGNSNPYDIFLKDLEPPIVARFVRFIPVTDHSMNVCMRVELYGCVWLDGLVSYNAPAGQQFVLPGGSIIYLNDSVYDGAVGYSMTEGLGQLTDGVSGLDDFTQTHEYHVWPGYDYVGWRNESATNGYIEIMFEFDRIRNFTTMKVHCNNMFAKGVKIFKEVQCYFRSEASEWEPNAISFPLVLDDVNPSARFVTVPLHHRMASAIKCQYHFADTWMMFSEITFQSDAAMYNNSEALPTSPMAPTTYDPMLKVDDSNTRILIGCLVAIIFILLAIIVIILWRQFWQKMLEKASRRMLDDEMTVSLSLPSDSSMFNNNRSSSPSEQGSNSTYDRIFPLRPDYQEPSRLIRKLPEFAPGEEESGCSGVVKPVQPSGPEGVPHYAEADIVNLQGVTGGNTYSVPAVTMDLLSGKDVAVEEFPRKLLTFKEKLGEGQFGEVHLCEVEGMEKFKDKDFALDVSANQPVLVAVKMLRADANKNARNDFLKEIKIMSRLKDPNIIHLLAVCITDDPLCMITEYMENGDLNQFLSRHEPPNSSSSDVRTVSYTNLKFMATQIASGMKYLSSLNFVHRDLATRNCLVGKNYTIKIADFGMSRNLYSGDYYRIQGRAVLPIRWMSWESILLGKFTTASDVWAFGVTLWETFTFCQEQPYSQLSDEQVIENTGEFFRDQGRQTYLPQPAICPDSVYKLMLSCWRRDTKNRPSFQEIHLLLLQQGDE
Chain of Mitogen-activated protein kinase kinase kinase 20 (Q9NYL2 whole entry): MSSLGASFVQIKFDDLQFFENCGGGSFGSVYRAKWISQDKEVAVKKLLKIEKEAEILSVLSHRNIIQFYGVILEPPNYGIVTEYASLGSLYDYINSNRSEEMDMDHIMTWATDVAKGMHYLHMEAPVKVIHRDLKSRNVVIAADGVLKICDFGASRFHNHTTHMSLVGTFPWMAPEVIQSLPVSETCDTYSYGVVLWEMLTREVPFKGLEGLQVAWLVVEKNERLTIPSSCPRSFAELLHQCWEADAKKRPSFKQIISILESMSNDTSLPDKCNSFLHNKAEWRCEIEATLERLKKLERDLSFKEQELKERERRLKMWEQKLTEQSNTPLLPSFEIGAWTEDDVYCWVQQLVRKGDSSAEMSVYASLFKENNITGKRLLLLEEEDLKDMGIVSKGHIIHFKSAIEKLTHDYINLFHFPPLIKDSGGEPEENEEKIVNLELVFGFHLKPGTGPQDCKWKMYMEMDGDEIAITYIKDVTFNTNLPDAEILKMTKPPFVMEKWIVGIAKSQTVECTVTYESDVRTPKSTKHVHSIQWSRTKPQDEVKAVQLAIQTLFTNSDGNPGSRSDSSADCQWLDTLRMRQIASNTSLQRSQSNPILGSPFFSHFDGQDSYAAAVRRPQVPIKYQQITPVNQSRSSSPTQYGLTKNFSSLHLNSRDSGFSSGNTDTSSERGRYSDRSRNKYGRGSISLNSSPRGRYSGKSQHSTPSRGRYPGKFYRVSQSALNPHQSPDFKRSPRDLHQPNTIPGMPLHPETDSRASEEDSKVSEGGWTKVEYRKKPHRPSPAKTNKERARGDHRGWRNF
Chain of Ephrin type-A receptor 7 (Q15375 whole entry): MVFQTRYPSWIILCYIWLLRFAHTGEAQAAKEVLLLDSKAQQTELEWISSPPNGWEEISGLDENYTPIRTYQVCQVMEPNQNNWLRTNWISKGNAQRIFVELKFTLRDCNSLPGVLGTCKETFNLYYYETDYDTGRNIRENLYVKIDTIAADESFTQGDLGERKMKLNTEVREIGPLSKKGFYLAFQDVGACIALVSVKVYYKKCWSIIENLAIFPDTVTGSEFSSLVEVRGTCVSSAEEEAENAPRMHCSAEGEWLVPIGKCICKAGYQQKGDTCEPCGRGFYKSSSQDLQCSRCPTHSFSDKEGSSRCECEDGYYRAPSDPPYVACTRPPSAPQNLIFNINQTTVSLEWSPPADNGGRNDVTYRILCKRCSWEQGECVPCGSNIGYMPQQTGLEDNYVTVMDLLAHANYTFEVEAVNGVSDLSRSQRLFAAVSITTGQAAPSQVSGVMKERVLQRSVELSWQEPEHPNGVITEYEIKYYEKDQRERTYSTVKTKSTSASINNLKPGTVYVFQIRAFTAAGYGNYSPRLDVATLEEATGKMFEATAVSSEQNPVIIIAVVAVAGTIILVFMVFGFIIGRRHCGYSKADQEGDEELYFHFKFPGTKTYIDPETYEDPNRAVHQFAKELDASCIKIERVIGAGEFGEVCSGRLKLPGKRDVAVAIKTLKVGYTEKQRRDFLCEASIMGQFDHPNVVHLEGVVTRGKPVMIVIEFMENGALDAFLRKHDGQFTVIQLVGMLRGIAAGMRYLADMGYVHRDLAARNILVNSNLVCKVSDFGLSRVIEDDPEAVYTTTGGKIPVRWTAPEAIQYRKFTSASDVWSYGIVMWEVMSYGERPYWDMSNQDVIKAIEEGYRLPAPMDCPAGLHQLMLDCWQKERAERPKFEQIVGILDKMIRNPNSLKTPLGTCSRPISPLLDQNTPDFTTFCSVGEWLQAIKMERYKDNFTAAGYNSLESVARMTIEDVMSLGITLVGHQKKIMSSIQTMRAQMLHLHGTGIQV

Work on CC(C)(C)c1cc(NC(=O)Nc2ccc3oc(C(=O)c4cc5cc(O)ccc5[nH]4)cc3c2)no1 yielded an EC50 [1] of 2490 nM, an EC50 [2] of 1770 nM and an EC50 [3] of 3860 nM. The EC50 [4] was 1770 nM, the EC50 [5] was 3260 nM and the inhibition [6] was “Active”. It also gave an EC50 [7] of 2490 nM, an EC50 (Ephrin type-A receptor 7) of 3260 nM and an IC50 [8] of 2.3 nM. The Kd [9] was 115 nM and the IC50 [10] was 4.84 nM.

In the case of Cc1cc(NC(=O)Nc2ccc3[nH]c(C(=O)c4cc5cc(O)ccc5[nH]4)cc3c2)no1, the IC50 (MV4-11 [11]) is reported as over 100 nM.

Cc1cccc2[nH]c(C(=O)c3cc4ccc(NC(=O)Nc5cc(C(C)(C)C)on5)cc4[nH]3)cc12 showed an IC50 (MV4-11 [11]) of 23.5 nM.

CC(C)(C)c1cc(NC(=O)Nc2cc3cc(C(=O)c4cc5cc(O)ccc5o4)[nH]c3cn2)no1 showed an IC50 (MV4-11 [11]) of 29.8 nM.

Work on CC(C)(C)c1cc(NC(=O)Nc2ccc3[nH]c(C(=O)c4cc5cc(O)ccc5o4)cc3c2)no1 yielded an IC50 (MV4-11 [11]) of 0.78 nM.

With CC(C)(C)c1cc(NC(=O)Nc2ccc3[nH]c(C(=O)c4cc5cc(O)ccc5[nH]4)cc3c2)no1 the IC50 (MV4-11 [11]) was 1.7 nM.

For Cc1cccc2[nH]c(C(=O)c3cc4cc(NC(=O)Nc5cc(C(C)(C)C)on5)ccc4[nH]3)cc12, the IC50 (MV4-11 [11]) was 13.5 nM.

Compound Cc1cccc2[nH]c(C(=O)c3cc4cccc(NC(=O)Nc5cc(C(C)(C)C)on5)c4[nH]3)cc12 has an IC50 (MV4-11 [11]) of over 100 nM.

With CC(C)(C)c1cc(NC(=O)Nc2cnc3[nH]c(C(=O)c4cc5cc(O)ccc5[nH]4)cc3c2)no1 the IC50 (MV4-11 [11]) was over 100 nM.

Work on Cc1cccc2[nH]c(C(=O)c3cc4c(NC(=O)Nc5cc(C(C)(C)C)on5)cccc4[nH]3)cc12 yielded an IC50 (MV4-11 [11]) of over 100 nM.

In the case of CC(C)(C)c1nnc(NC(=O)Nc2ccc3[nH]c(C(=O)c4cc5cc(O)ccc5[nH]4)cc3c2)s1, the IC50 (MV4-11 [11]) is reported as 14.4 nM.

Work on CC(C)(C)c1cc(NC(=O)Nc2ccc3oc(C(=O)c4cc5cc(OC(=O)N6CCC(N7CCCCC7)CC6)ccc5[nH]4)cc3c2)no1.Cl yielded an IC50 (MV4-11 [12]) of 0.0009 nM, an IC50 (L-363) of 1.61 nM and a solubility at 3 h (physchem) of 0.23 mg/mL. It also gave an IC50 (SKM-1) of 1.35 nM, an IC50 (cells [13]) of 2.27 nM and an IC50 (RPMI-8226) of 2.37 nM. The IC50 (MOLM-13) was 0.002 nM, the IC50 (OPM-2) was 1.33 nM and the IC50 (KG-1) was 0.556 nM. It also gave an IC50 (U-266) of 1.37 nM, an IC50 (KG-1a) of 0.613 nM and an IC50 (OCI-AML-5) of 0.159 nM. The IC50 (KMOE-2) was 5.33 nM, the IC50 (TF-1) was 5.31 nM and the IC50 (HL-60) was 2.35 nM. For the same compound, the IC50 (ML-2) was 1.49 nM, the IC50 (cells [14]) was 0.695 nM and the IC50 (cells [15]) was 1.3 nM. It also gave an IC50 (NB-4) of 3.6 nM, an IC50 (cells [16]) of 0.001 nM and an IC50 (IM-9) of 2.25 nM. For the same compound, the IC50 (MONO-MAC-6) was 0.011 nM, the Activity [17] was “Non-Toxic” and the Activity [18] was 3%. For the same compound, the IC50 (cells [19]) was 2.36 nM, the IC50 (OCI-AML2) was 1.39 nM and the IC50 (EOL1) was 0.0001 nM. It also gave an IC50 (THP-1) of 2.12 nM and an IC50 (NOMO-1) of 1.21 nM.
